Values quoted from earlier work in patent publication US8754219B2, “Compounds that modulate intracellular calcium” (Calcimedica, Inc., priority 2010, dated 2014).

Experiments:
[1] = molecular target: STIM1 and Orai1 in HEK293 cells (Homo sapiens, UniProt Q96D31); conditions: Orai1 expressed along with STIM1
[2] = tested on: colon cancer cells
[3] = tested on: colon cancer cells; remark: listed apart in the source
[4] = tested on: Jurkat cells
[5] = tested on: Jurkat cells; remark: listed apart in the source

Sequence of STIM1 and Orai1 in HEK293 cells (Q96D31 whole entry): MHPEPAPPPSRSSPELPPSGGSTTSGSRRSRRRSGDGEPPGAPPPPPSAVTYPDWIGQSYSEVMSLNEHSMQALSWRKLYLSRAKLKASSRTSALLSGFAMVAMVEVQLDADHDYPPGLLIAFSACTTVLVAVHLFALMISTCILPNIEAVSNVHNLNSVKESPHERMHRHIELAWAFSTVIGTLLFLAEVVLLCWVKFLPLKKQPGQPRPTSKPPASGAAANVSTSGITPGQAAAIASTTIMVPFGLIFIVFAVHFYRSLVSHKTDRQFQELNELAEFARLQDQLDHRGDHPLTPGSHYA

Structure (SMILES) | block of store dependent Ca2+ entry [1] | inhibition of proliferation [2] | inhibition of SOCE [3] | inhibition of proliferation [4] | inhibition of SOCE [5]
NCCOB(c1ccccc1)c1ccccc1 [2-aminoethoxydiphenylborate] | completely blocked | – | – | – | –
Cc1nnsc1C(=O)Nc1ccc(-n2nc(C(F)(F)F)cc2C(F)(F)F)cc1 [BTP-2] | – | inhibits | inhibits | inhibits | inhibits
